From patent US6441027B1, “Method of regulating the female reproductive system through angiogenesis inhibitors” (Children's Medical Center Corporation, priority 1996, dated 2002)
Entries after “also recorded” stand apart in the source; their conditions may differ.

Assays:
[1] = system: intersite endometrium; experiment: Factor VIII microvessel density of intersite endometrium on E6; assay type: in vivo, mouse
Protocol: To test this hypothesis, mice were treated with AGM-1470 on E1 and sacrificed at E6, a time point prior to placental formation. The uteri of the mice were examined by antibodies to Factor VIII and PCNA to determine if there was any difference in the degree of endometrial angiogenesis or the proliferative response of the decidua induced by trophoblast invasion. However, in the decidua there was a 50% decrease in the proliferation of stromal cells in the AGM-1470 treated mice as compared to control (PCNA staining/X630 field in control was 48%±3, n=4, versus 24%±5, n=4, P≦0.005 in AGM-1470 treated mice. See FIG. 4A and 4B). […]
To determine microvessel density, Carnoy's-fixed tissue sections were pretreated with 2 microgram/ml Proteinase K (Boehringer Mannheim, Mannheim, Germany) at 37° Celsius for 15 minutes before staining with a rabbit polyclonal antibody against mouse factor VIII (Dako, Carpinteria, Calif.). Positive staining was detected by incubating sequentially with a secondary antibody against rabbit conjugated to horseradish peroxidase (Dako) and diaminobenzidine tetrahydrochloride (DAB) (Dako) as a chromagen. […] Microvessel density was determined by light microscopy. Each count was expressed as the number of microvessels identified within a selected field. Ten fields per section were counted. […]

[2] = system: corpora lutea; experiment: Cycling mice, chronic treatment: examination of the ovaries; assay type: in vivo, mouse; details: 30 mg/kg every other day for 16 days
Protocol: Mice were randomized and received either AGM-1470 30 mg/kg s.c. or saline 0.1 ml s.c. every other day for 16 days (approximately four estrous cycles). On the last of four days of treatment mice were housed with male mice to see if successful mating and conception would occur. On day 16 mice were weighed and sacrificed by cervical dislocation. The ovaries were resected enbloc, fixed in Carnoy's fixative, and embedded in paraffin according to standard histologic techniques. Sections were cut at 6 microns and stained with hematoxylin and eosin.

[3] = system: angiogenesis; details: cited from earlier work
[4] = 30 mg/kg s.c. every other day, greater than 100 days of therapy; cited from earlier work
[5] = system: embryo and yolk sac blood vessels; experiment: Whole mount anti-CD31/PECAM staining of embryo and yolk sac on E9; assay type: in vivo, mouse; details: 30 mg/kg on E7, studied E9
Protocol: Mice were treated with 30 mg/kg AGM-1470 following the same protocol in Example 2. The control and AGM-1470 treated embryos were studied on E9 by whole mount immunohistochemistry for CD-31/PECAM to stain blood vessels. The fetus and the yolk sack in the mice given AGM-1470 on E1 were excluded due to necrosis by E9. […] Loss of vascular development in the embryo could be due to either a direct effect of AGM-1470 on the embryonic vasculature or to a secondary effect caused by failure of normal placental and yolk sac development.
The whole-mount immunohistochemistry with monoclonal antibody to mouse PECAM (CD31) was performed essentially as described by Schlaeger^29 Embryos were dissected from the uterus and fixed in 4% paraformaldehyde, PBS at 4° Celsius overnight. The fixed embryos were subsequently rinsed in PBS at room temperature and dehydrated in a methanol series. The dehydrated embryos were bleached in 5% hydrogen peroxide in methanol for 4 to 5 hours at room temperature and then rinsed twice in methanol. Embryos were stored at −20° Celsius until used. The bleached embryos were rehydrated and blocked with PBSMT (3% instant skim milk, 0.1% Triton X-100, PBS) for one hour twice at room temperature. The embryos were then incubated with a 1:10 diluted hybridoma supernatant in PBSMT at 4° Celsius overnight. On the next day, the embryos were washed with PBSMT at 4° Celsius five times (1 hour each) and then incubated with a biotinylated secondary anti-rat IgG, mouse adsorbed (Vector Laboratories, Burlingame, Calif.) in PBSMT at 4° Celsius overnight. On the third day, the embryos were rinsed in PBSMT at 4° Celsius five times (1 hour each) and then incubated in avidin and horse radish conjugated biotin in PBSMT (1:100 dilution) (Vectastatin Elite Standard ABC Kit, Vector Laboratories) overnight at 4° Celsius. On the fourth day embryos were rinsed in PBSMT at 4° Celsius five time (1 hour each) and finally in PBT (0.2% BSA, 0.1% Triton-X100, PBS) for 20 minutes at room temperature. […]

[6] = system: female C57BL/6 mice; experiment: Single dose on E(-1): implantation sites 6 days after mating; assay type: in vivo, mouse; details: single dose 30 mg/kg s.c. on E(-1), sacrificed 6 days after mating
Protocol: FIGS. 7A and 7B show the ovaries and uteri from a control mouse or an AGM-treated mouse given a single dose of AGM-1470 on E(−1). Group housed female C57BL/6 mice were treated with a single injection of AGM-1470 (30 mg/kg, s.c.) and paired with male breeders. Mice who mated on the day after treatment were sacrificed 6 days after mating. Ovaries and uteri were removed en bloc, fixed and stained with hemotoxylin and eosin. […] Thin arrows indicate the corpora lutea.
In addition, the ovaries and uteri from control and single treatment mice were examined. Group housed female C57BL/6 mice were treated with a single injection of AGM-1470 (30 mg/kg, s.c.) and paired with male breeders. Mice who mated on the day after treatment were sacrificed 6 days after mating. Ovaries and uteri were removed en bloc, fixed and stained with hemotoxylin and eosin. […] Thin arrows indicate the corpora lutea.^1 The fat arrows indicate implantation sites in control not seen in treated animal.

Question: With `CO[C@@H]1[C@H](OC(=O)NC(=O)CCl)CC[C@]2(CO2)[C@H]1[C@@]1(C)O[C@@H]1CC=C(C)C` [AGM-1470, O-chloroacetylcarbamoyl fumagillol] as the molecule, how does the “decrease in microvessel density in intersite endometrium vs control” value ([1]; treated on E1, sacrificed E6) read?
Answer: 52%

Question: And the “microvessel density in intersite endometrium” value ([1]; treated on E1, sacrificed E6, n=4)?
Answer: 57±13 vessels/X250 field

Question: What about the “corpora lutea smaller than control” value [2] of the same molecule?
Answer: 61%

Question: And the “number of corpora lutea” value ([2]; vs control)?
Answer: fewer; also recorded: decreased size and number of corpora lutea

Question: What about the “activity relative to parent compound fumagillin” value [3] of the same molecule?
Answer: 50 times

Question: And the “toxicity of dosing schedule” value [4]?
Answer: no evident toxicity

Question: And the “CD31 labeled vessels in heart and liver bud” value [5]?
Answer: almost a complete loss of CD31 labeled vessels

Question: What about the “capillary density of embryo (CD31)” value [5] of the same molecule?
Answer: loss of capillary density; also recorded: diffuse decrease in capillary density

Question: What about the “capillary density of yolk sac (CD31)” value [5] of the same molecule?
Answer: decrease in density and intercapillary distance of capillaries; also recorded: decreased capillary density

Question: And the implantation sites [6]?
Answer: prevented implantation; also recorded: not seen in AGM-1470 treated animal
